Assay in all cases: NCI-60 cell line screen, 48 h
Assay [1] relates to M19-MEL melanoma.
The subject of assay [2] is LXFL 529 NSCLC.
Assay [3] has as its system HOP-18 NSCLC.
The test system of assay [4] is DLD-1 colon.
Assay [5] relates to DMS 273 small cell lung.
The test system of assay [6] is XF 498 CNS.
Assay [7] concerns RXF-631 renal.
Assay [8] concerns MDA-N.
For assay [9], the system named is DMS 114 small cell lung.

Several values for one entry are separate records, joined by “and”; a condition that tells them apart may be missing. Identical values can stand only once.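 Exposure lasted 48 hours, with cells grown in 96-well plates and compounds tested at five concentrations. Abbreviation: GI50, concentration required for 50% inhibition of growth. TGI is the concentration that stops growth completely.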

`OCC(O)CC[CH2][Sn]([Br])([c]1ccccc1)[c]1ccccc1` (stereo not given): the GI50 in [1] is above 100 µM; in assay [2], 88.5 µM; in assay [3] it was above 100 µM; in assay [4] it was above 100 µM; in assay [5], above 100 µM; in assay [6] it was above 100 µM. Moreover, the TGI in [1], in [2], in assay [3], in [4], in [5] and in assay [6] was above 100 µM throughout.
Regarding `CN1CCN(C)C12C=c1ccccc1=CC21CC1`, the TGI was 37.1 µM in assay [1]; above 100 µM in assay [7]; 31.2 µM in assay [2]; above 63.9 µM in [8]; above 100 µM in assay [3]; 68.2 µM in assay [4]. Further, the results for the TGI in [5], in assay [6] and in assay [9] were above 100 µM, 49.5 µM and 36.3 µM, respectively.
As to `O=C(O)CNS(=O)(=O)c1ccc(NCc2ccccc2)cc1`, the TGI in assay [1], in assay [2], in assay [3], in assay [4], in assay [5] and in assay [6] was above 100 µM in each case. This compound displayed a TGI in assay [9] above 100 µM.
As for `O=C(/N=N/C(=O)OCc1ccccc1)OCc1ccccc1`, the TGI in [1], in assay [7], in [2], in assay [3], in [5] and in assay [6] was above 100 µM each time. In addition, the TGI in assay [9] was above 100 µM.
Turning to `Cn1c(=O)c2[nH]c(SCc3ccccn3)nc2n(C)c1=S`, in assay [8], the TGI is above 100 µM.
In turn, `Cc1ccc2c(c1)[n+]([O-])c(N)n[n+]2[O-]` yielded a TGI in [8] above 100 µM.
As for `COc1ccc(-c2cc(=O)c3ccc(O)cc3o2)cc1OC`, the TGI in assay [8] is above 100 µM.
Turning to `[Cl-].[Dy+3].[O-]/N=C(\c1ccccc1)c1ccccn1.[O-]/N=C(\c1ccccc1)c1ccccn1.[O-]/N=C(\c1ccccc1)c1ccccn1`, the GI50 is 31.3 µM in [1]; 41.2 µM in [2]; 35.9 µM in assay [4]; 29.8 µM in [5]; 24.6 µM in assay [9]. Moreover, the TGI was 94.6 µM in assay [1]; above 100 µM in assay [2]; above 100 µM in assay [4]; above 100 µM in assay [5]; 77.6 µM in assay [9].
Take `CC(=O)CNC(=O)OC(C)(C)C`: the TGI in assay [1], in [4], in [5], in assay [6] and in assay [9] was above 100 µM throughout.
As to `CC(C)(CC(=O)Nc1ccccc1)C(=O)O`, in assay [8], the TGI was above 100 µM.
`CCC[CH2][Sn]1([CH2]CCC)[O]Cc2nc(C)ccc2[O]1`: the GI50 in assay [1] is 4.49 µM; in [2], 2.07 µM; in assay [4], 10.2 µM; in assay [5] it was 11 µM; in assay [6], 2.34 µM; in [9] it was 3.07 µM. In addition, the TGI in assay [1] turned out to be 19.2 µM; in [2], 5.75 µM; in assay [4], 21.9 µM; in assay [5] it was 22.9 µM; in [6] it was 7.8 µM; in assay [9], 9.3 µM.
`NC(=O)C(=O)N/N=C(\CC1(O)C(=O)Nc2ccccc21)c1ccc2ccccc2c1` (stereo not given): the TGI in assay [1] was 65.6 µM; in assay [2], above 100 µM; in [3], above 100 µM; in assay [4], above 100 µM; in assay [5] it was 80.5 µM; in [6], 51.3 µM. In [9], this compound yielded a TGI of 55.4 µM.
With `O=c1/c(=C/c2ccco2)sc2nc3ccccc3n12`, the GI50 is above 100 µM in assay [1]; above 100 µM in assay [7]; above 100 µM in assay [2]; above 100 µM in assay [4]; above 10 µM in assay [5]; above 100 µM in assay [6]. Besides, the GI50 in assay [9] was above 100 µM. Moreover, the TGI in assay [1], in assay [7], in [2], in assay [3], in assay [4] and in assay [5] was above 100 µM in each case. The TGI in [6] and in assay [9] was above 100 µM throughout.
Regarding `CCC[CH2][Sn]([CH2]CCC)([O]C(=O)c1cccnc1SC)[O]C(=O)c1cccnc1SC`, the GI50 is 0.36 µM in [1]; 0.059 µM in assay [2]; 1.48 µM in assay [3]; 0.347 µM in [4]; 1.07 µM in [5]; 1.25 µM in assay [6]. In addition, the GI50 in assay [9] is 0.128 µM. Moreover, the TGI in assay [1] is 1.57 µM; in assay [2] it was 0.238 µM; in assay [3], 2.8 µM; in assay [4], 1.61 µM; in [5], 2.26 µM; in assay [6] it was 2.5 µM. The same compound returned a TGI in assay [9] of 0.829 µM.
On to `COc1ccc(/C=C/CN(C)CCc2ccccc2)cc1OC`, for which the TGI in assay [1], in assay [2], in assay [5] and in assay [9] was above 100 µM throughout.
Regarding `O=C1C2c3[nH]c4ccccc4c3C3CCCCCCC3C2C(=O)N1c1ccccc1` (stereo not given), the TGI was 37.2 µM in assay [1]; 17.6 µM in [7]; 33.8 µM in assay [2]; 29.8 µM in assay [5]; 10.7 µM in assay [6]; 17.5 µM in assay [9].
In assay [8], `COc1ccc(NC2=CC(=O)C(=O)c3ccccc32)nn1` registered a TGI of 1.16 µM.
As to `CCc1ccc(/C=C\c2cc(OC)c(OC)c(OC)c2)cc1`, the GI50 is 0.0392 µM in assay [1], 0.0233 µM in [2], 0.0358 µM in assay [4] and 0.0156 µM in assay [9]. Besides, the TGI is above 100 µM in [1]; 27.3 µM in [2]; 0.00395 µM in [8]; 27.8 µM in assay [4]; 0.994 µM in assay [5]; 0.228 µM and 0.057 µM in assay [9].
For `O=C1CCC(=O)N2CCCCN12`, the TGI in [1], in assay [7], in assay [2], in [3], in assay [4] and in assay [5] was above 100 µM in each case. In addition, the TGI in assay [9] was above 100 µM.
As for `O=C1/C(=C/c2ccccc2)CNC/C1=C\c1ccccc1`, the TGI in assay [1] came out at 2.72 µM; in [7], 13 µM; in [2] it was 3.58 µM; in assay [3], 22.9 µM; in [4], 1.08 µM; in assay [5], 2 µM. Moreover, the TGI in assay [6] was found to be 6.41 µM; in assay [9], 8.36 µM.
With `O=C(c1ccccc1)c1nnc(C(=O)c2ccccc2)nn1`, the TGI in assay [1], in assay [2], in [3], in assay [4] and in assay [5] was above 344 µM throughout.
Turning to `CC1=NN(C(=O)Nc2ccccc2)C(=O)C2CCC(=O)N12` (stereo not given), the TGI in assay [1], in [7], in [2], in assay [4], in [5] and in [6] was above 100 µM in each case. In assay [9], the TGI is above 100 µM.
In the case of `Cc1cc2c(cc1C)[n+](=O)c(C(=O)C/C(=N/NC(=O)CC#N)C(=O)Nc1ccccc1C(F)(F)F)c(C)n2[O-]`, the TGI in [1] is above 100 µM; in assay [7], 33.3 µM; in assay [2], above 100 µM; in assay [3] it was above 100 µM; in assay [5], above 100 µM; in assay [6], above 100 µM. In assay [9], the TGI was above 100 µM.
Turning to `CC[CH2][Sn]([CH2]CC)([O]C(=O)c1cccnc1SC)[O][Sn]([CH2]CC)([CH2]CC)[O]C(=O)c1cccnc1SC`, the GI50 was 0.0833 µM in assay [1]; 0.0198 µM in assay [2]; 1.27 µM in [8]; 0.689 µM in assay [3]; 0.219 µM in assay [4]; 0.367 µM in assay [5]. For the same compound, the GI50 was 0.159 µM in assay [6] and 0.0726 µM in assay [9]. Also, the TGI in assay [1] was determined as 0.337 µM; in assay [2] it was 0.155 µM; in [8], 2.52 µM; in assay [3], 1.81 µM; in assay [4] it was 0.998 µM; in assay [5] it was 1.69 µM. The TGI is 0.296 µM in [6] and 0.222 µM in assay [9].
For the compound `COc1ccc(-c2cc(=O)c3c(OC)c(OC)c(OC)cc3o2)cc1`, the TGI in assay [8] is above 100 µM.
`CCOC(=O)[C]1([Bi]([CH3])[CH3])N=NC(C(=O)OC)=C1C(=O)OC` (stereo not given): the GI50 was 17.6 µM in assay [1]; 17.2 µM in assay [7]; 14.5 µM in assay [2]; 17.3 µM in [3]; 18.3 µM in assay [4]; 22.5 µM in assay [5]. Moreover, the GI50 in assay [9] is 20 µM. Besides, the TGI in [1] is 32.5 µM; in [7], 31.4 µM; in assay [2], 35.2 µM; in [3], 31 µM; in assay [4] it was 32.5 µM; in assay [5], 59.1 µM. In assay [9], this compound registered a TGI of 40 µM.
In [8], `C[C@]12CC[C@H]3[C@@H](CC=C4C[C@@H](O)CC[C@@]43C)[C@@H]1CC[C@@H]2N(CCO)CCO` registered a TGI above 100 µM.
Still for that read-out and setting: the figure for `COC1/C=C\C=C(/C)C(=O)NC2=CC(=O)C(=O)C(=C2O)CC(C)CC(OC)C(O)C(C)/C=C(\C)C1OC(N)=O` (stereo not given) is 12.2 µM.
On the same count and under the same terms, the figure for `CC(=O)OCCN1c2ccccc2Sc2cnccc21` is above 10 µM.
In the case of `COC12C=C(C)C(CC1)CC2C(=O)O` (stereo not given), the TGI in [1], in assay [2], in assay [3], in assay [4], in assay [5] and in assay [6] was above 100 µM in each case.
As to `Brc1cccc(C=NC23CC4CC(CC(C4)C2)C3)c1`, the TGI in assay [1], in [2], in [3], in [4], in assay [5] and in assay [6] was above 100 µM in each case. The compound also returned a TGI in assay [9] above 100 µM.
With `COc1ccc(C2=CC3CCC2C3)cc1` (stereo not given), the TGI in assay [2], in assay [3], in assay [4], in [5] and in [6] was above 100 µM in each case.
Turning to `CC[C@@]1(O)C(=O)OCc2c1cc1n(c2=O)Cc2c-1nc1cc3c(cc1c2CCl)OCO3`, in assay [8], the GI50 is below 0.01 µM and the TGI is 1.63 µM.
Regarding `O=c1c2cc([N+](=O)[O-])ccc2sc2ccsc12`, the TGI in assay [1], in assay [7], in assay [2], in assay [3], in assay [4] and in [6] was above 100 µM throughout. The TGI in [9] is above 100 µM.
In assay [8], `COc1ccc(/C=C/c2nccc3ccccc23)cc1OC` displayed a TGI above 10 µM.
Turning to `O=C1CCC2(c3ccc(F)cc3)Nc3cc(Cl)ccc3N12` (stereo not given), the TGI in assay [1] was above 100 µM; in assay [2] it was above 100 µM; in [3] it was above 100 µM; in assay [4], above 100 µM; in [5], above 100 µM; in assay [6], 86.2 µM. For the same compound, in assay [9], the TGI is above 100 µM.
Consider `COC(=O)C1Cc2c(n(Cc3ccccc3)c3ccccc23)C(CCC(=O)O)N1C(C)C` (stereo not given), for which the TGI in [1], in [7], in assay [2], in assay [3], in assay [4] and in [5] was above 100 µM each time. The compound also returned a TGI in [9] above 100 µM.
As for `O=C(/C=C/c1c(O)ccc2ccccc12)c1cccc(O)c1`, the TGI in assay [1] was 33.3 µM; in assay [2], above 100 µM; in [3], above 86.8 µM; in assay [4], above 100 µM; in assay [5] it was above 100 µM; in assay [6], above 100 µM. Also, the TGI in assay [9] is above 77.3 µM.

(Values after PubChem BioAssay (NCI).)
